Data taken from PubChem BioAssay (NCI).
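48-hour exposure; five concentrations; linearly interpolated endpoints. GI50 = concentration required for 50% inhibition of growth. TGI denotes the concentration required for complete inhibition of growth.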

What was measured:
Test in all cases: NCI anticancer screen, dose series, 48 h
LOX IMVI melanoma = system: LOX IMVI melanoma
MALME-3M melanoma = system: MALME-3M melanoma
HCT-15 colon = system: HCT-15 colon
SF-295 CNS = system: SF-295 CNS
RXF 393 renal = system: RXF 393 renal
OVCAR-3 ovarian = system: OVCAR-3 ovarian
SNB-75 CNS = system: SNB-75 CNS
COLO 205 colon = system: COLO 205 colon
PC-3 prostate = system: PC-3 prostate
SK-MEL-2 melanoma = system: SK-MEL-2 melanoma

SMILES	GI50 (LOX IMVI melanoma) [µM]	TGI (LOX IMVI melanoma) [µM]	GI50 (MALME-3M melanoma) [nM]	TGI (MALME-3M melanoma) [µM]	GI50 (HCT-15 colon) [µM]	TGI (HCT-15 colon) [µM]	GI50 (SF-295 CNS) [nM]	TGI (SF-295 CNS) [µM]	GI50 (RXF 393 renal) [nM]	TGI (RXF 393 renal) [µM]	GI50 (OVCAR-3 ovarian) [nM]	TGI (OVCAR-3 ovarian) [µM]	GI50 (SNB-75 CNS) [nM]	TGI (SNB-75 CNS) [µM]	GI50 (COLO 205 colon) [nM]	TGI (COLO 205 colon) [µM]	GI50 (PC-3 prostate) [nM]	TGI (PC-3 prostate) [µM]	GI50 (SK-MEL-2 melanoma) [nM]	TGI (SK-MEL-2 melanoma) [µM]
C/C(=C\c1ccn(-c2ccc(N)c(C(F)(F)F)c2)n1)[C@@H]1C[C@@H]2O[C@]2(C)CCC[C@H](C)[C@H](O)[C@@H](C)C(=O)C(C)(C)[C@@H](O)CC(=O)O1	0.0122	> 20.8	15	16.7	0.0109	> 27.8	15.5	7.23	11.1	0.435	9.97	1.46	4.13	0.0876	8.55	0.111	11.9	> 31	24.1	10.4
CCCCCCCCCCCCCOC(=O)c1c(C)[nH]c(/C=C2\N=C(c3ccc[nH]3)C=C2OC)c1C		0.0223	2600	> 100	0.0262		1750	37.7	465	10.5	227	15.5	919	10.9	58.3	> 100	20	> 100	29.4	0.157
COc1ccc(C(=O)/C=C/c2cc3ccccc3[nH]c2=O)cc1	13.7	25.4	40800	> 100	20.3	> 59.6	20300	> 57.1	19700	> 44	17900	36.4	15300	34.8	18500	35.3	> 59700	> 100	23000	> 73.8
CS(=O)(=O)c1ccc(N/N=C/c2c(-c3ccc(S(C)(=O)=O)cc3)[nH]c3ccc(F)cc23)cc1	1.24	3.64	1340	4.38	18.1	> 50	934	1.89	904	1.94	2230	> 50	1520	40	2860	> 50	2180	> 50	1740	4.73
CCN(Cc1ccc(F)cc1)c1ccc(CO)c(Cl)c1	7.76	20.7	15000	35.9	5.15	50.7	714	14	2810	21.2	704	6.18	4580	39.6	1350	3.77	14300	49.4	2030	13.9
C#C[C@@]1(O)[C@@H](CO)O[C@@H](n2cc(Cl)c3c(N)ncnc32)[C@@H]1O	0.0541	0.253	241	3.18	0.143	> 100	202	3.2	299	0.813	233	1.79	283	0.714	106	0.379	191	4	146	0.481
O=C(O)C1C2C=CC(O2)C1C(=O)Nc1ccccc1 (stereo not drawn)		> 100		> 100		> 100		> 100		> 100		> 100		> 100		> 100		> 100		> 100
CCC1CCc2nc3sc(C(=O)Nc4ccccc4F)c(N)c3cc2C1 (stereo not drawn)	7.66	> 100	3550	> 100	0.401	> 100	669	> 100	1180	> 100	454	8.98	2160	> 100	7400	> 100	18800	> 100	10500	> 100
COc1cccc(-c2nn(-c3ccccc3)cc2-c2ccnc(NCCNS(=O)(=O)c3ccc(C(F)(F)F)cc3)c2)c1	1.84	3.78	2330	6.81	3.04	> 100	2910	8.67	2100	5.5	2590	7.3	3180	37.1	1870	3.57	2860	26.7	2420	6.47
Cc1cc(Cl)ccc1Nc1sc(C(=O)c2cc3cc(Cl)ccc3o2)c(N)c1C#N		> 100		> 100		> 100		> 100		> 100		> 55.3		20.8		> 100		> 100		> 100
Cc1cc(NC(=O)c2ccc(NS(=O)(=O)CCO)cc2N2CCC3(CC2)CC3)nc(N2CCC(F)(F)CC2)n1	7.05	27.3	13900	27.8	4.71	20.5	12300	27.3	260	6.58	36.5	2.49	1150	15.6	11000	28.4	7460	23.6	15800	31.1
Cc1cc(N(CCOS(C)(=O)=O)CCOS(C)(=O)=O)ccc1C=Nc1ccc(-c2csc(-c3ccccc3)n2)c(Cl)c1		28.3		25		36.1		29.8		7.65		40.9		14.1		10.2		46.5		50.5
